The source of these data is patent US20240309043A1, “THERAPEUTICALLY ACTIVE STEROIDAL DERIVATIVES” (Organon R&D Finland Ltd., priority 2017, published 2024).

What all share (type): biochemical
The target in experiment [1] is T1, recombinant human 17β-HSD1 (Homo sapiens, UniProt P14061).
T1 construct: made in house; host or cells: Sd9 (Sf9) insect cells, baculovirus (Bac to Bac Expression System)
T1 sequence (P14061 1-328): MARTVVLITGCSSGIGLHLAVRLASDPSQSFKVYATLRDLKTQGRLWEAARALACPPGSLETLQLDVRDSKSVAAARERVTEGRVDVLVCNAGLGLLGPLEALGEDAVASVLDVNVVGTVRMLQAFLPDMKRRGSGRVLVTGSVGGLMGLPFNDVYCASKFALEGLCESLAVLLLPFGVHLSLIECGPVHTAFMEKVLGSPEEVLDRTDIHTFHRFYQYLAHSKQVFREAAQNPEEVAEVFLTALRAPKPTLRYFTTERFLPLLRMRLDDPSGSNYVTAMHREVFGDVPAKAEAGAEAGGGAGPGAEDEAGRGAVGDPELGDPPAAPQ
In words: Inhibition of recombinant human 17β-HSD1. Particulars: inhibitor 100 nM; 30 nM estrone, 1 mM NADPH, 30 min RT. In a few lines: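 Microsomes from Sf9 cells expressing human 17β-HSD1 (1 μg/ml) were incubated for 30 min at RT in 20 mM KH2PO4 pH 7.4 with 30 nM ³H-estrone, 1 mM NADPH and inhibitor at 1 μM or 0.1 μM (1% DMSO). Estrone-to-estradiol conversion was measured by radio-HPLC after TCA stop, and % inhibition was taken as 100 − % conversion.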

Experiment [2] deals with T2, recombinant human 17β-HSD2 (Homo sapiens, UniProt P37059).
T2 construct: made in house; host or cells: Sd9 (Sf9) insect cells, baculovirus (Bac to Bac Expression System)
T2 sequence (P37059 1-387): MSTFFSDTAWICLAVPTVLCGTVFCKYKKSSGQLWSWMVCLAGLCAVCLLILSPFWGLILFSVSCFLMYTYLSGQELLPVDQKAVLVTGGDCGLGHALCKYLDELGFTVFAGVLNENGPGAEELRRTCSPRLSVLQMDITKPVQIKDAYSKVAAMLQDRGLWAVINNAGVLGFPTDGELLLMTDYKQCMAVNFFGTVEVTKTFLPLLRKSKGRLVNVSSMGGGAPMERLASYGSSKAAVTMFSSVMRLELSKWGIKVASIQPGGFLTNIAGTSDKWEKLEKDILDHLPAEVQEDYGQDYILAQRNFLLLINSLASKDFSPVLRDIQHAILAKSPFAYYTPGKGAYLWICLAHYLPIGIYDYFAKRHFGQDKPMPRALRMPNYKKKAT
In words: Inhibition of recombinant human 17β-HSD2. Particulars: inhibitor 1 μM; 50 nM estradiol, 1 mM NADH, 30 min RT. In outline: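 Sf9 baculovirus-expressed enzyme membrane extract (4 μg/ml) incubated 30 min at RT in 20 mM KH2PO4 pH 8.5 with 50 nM estradiol (³H-tracer) and 1 mM NADH, inhibitor at 1 μM or 0.1 μM, 1% DMSO. TCA-stopped; estradiol-to-estrone conversion by radio-HPLC, % inhibition = 100 − % conversion.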

Experiment [3] relates to HSD1 enzyme that is expressed in rabbit placenta tissue. In words: Inhibition of E1 to E2 conversion in rabbit placenta tissue homogenate. Particulars: inhibitor 100 nM, 30 nM estrone, 30 min.

Consider `Cc1ccnc(NC(=O)CC[C@@H]2C/C(=N\O)[C@@]3(C)CCC4c5ccc(Cl)cc5CCC4C23)c1` (stereo partly drawn) [Compound 70, 3-((13S,15R,E)-3-chloro-17-(hydroxyimino)-13-methyl-7,8,9,11,12,13,14,15,16,17-decahydro-6H-cyclopenta[a]phenanthren-15-yl)-N-(4-methylpyridin-2-yl)propanamide], for which the inhibition (commonly the relative decrease from the control value, in per cent) at 0.1 µM in experiment [1] came out at 81%. The inhibition at 1 µM in experiment [2] worked out at 4%. Moreover, the “Rabbit placenta inhibition % @100 nM” value in experiment [3] is given as −7%.
For the molecule `C[C@]12CCC3c4ccc(Cl)cc4CCC3C1[C@H](CCC(=O)Nc1ccc(C#N)cn1)C/C2=N\O` (stereo partly drawn) [Compound 72, 3-((13S,15R,E)-3-chloro-17-(hydroxyimino)-13-methyl-7,8,9,11,12,13,14,15,16,17-decahydro-6H-cyclopenta[a]phenanthren-15-yl)-N-(5-cyanopyridin-2-yl)propanamide], the inhibition at 0.1 µM in experiment [1] amounted to 52%. The inhibition at 1 µM in experiment [2] worked out at 7%. For the same molecule, the “Rabbit placenta inhibition % @100 nM” value in experiment [3] came to 26%.
As for `C[C@]12CCC3c4ccc(Cl)cc4CCC3C1[C@H](CCC(=O)Nc1cnccn1)C/C2=N\O` (stereo partly drawn) [Compound 74, 3-((13S,15R,E)-3-chloro-17-(hydroxyimino)-13-methyl-7,8,9,11,12,13,14,15,16,17-decahydro-6H-cyclopenta[a]phenanthren-15-yl)-N-(pyrazin-2-yl)propanamide], the inhibition at 0.1 µM in experiment [1] was determined as 27%. Moreover, the inhibition at 1 µM in experiment [2] worked out at 2%. Further, the “Rabbit placenta inhibition % @100 nM” value in experiment [3] is given as 13%.
The corresponding values for `Cc1ccc(NC(=O)CC[C@@H]2C/C(=N\O)[C@@]3(C)CCC4c5ccc(Cl)cc5CCC4C23)nn1` (stereo partly drawn) [Compound 76, 3-((13S,15R,E)-3-chloro-17-(hydroxyimino)-13-methyl-7,8,9,11,12,13,14,15,16,17-decahydro-6H-cyclopenta[a]phenanthren-15-yl)-N-(6-methylpyridazin-3-yl)propanamide] are 33%, 4% and 56%.
Taken in the same sequence, the figures for `C[C@]12CCC3c4ccc(Cl)cc4CCC3C1[C@H](CCC(=O)Nc1ccc(N3CCOCC3)cn1)C/C2=N\O` (stereo partly drawn) [Compound 78, 3-((13S,15R,E)-3-chloro-17-(hydroxyimino)-13-methyl-7,8,9,11,12,13,14,15,16,17-decahydro-6H-cyclopenta[a]phenanthren-15-yl)-N-(5-morpholinopyridin-2-yl)propanamide] were 76%, 1% and 37%.
Taken in the same sequence, the figures for `CN(C(=O)CC[C@@H]1C/C(=N\O)[C@@]2(C)CCC3c4ccccc4CCC3C12)C1CCOCC1` (stereo partly drawn) [Compound 80, 3-((13S,15R,E)-17-(hydroxyimino)-13-methyl-7,8,9,11,12,13,14,15,16,17-decahydro-6H-cyclopenta[a]phenanthren-15-yl)-N-methyl-N-(tetrahydro-2H-pyran-4-yl)propanamide] were 32%, 4% and 3%.
For the molecule `C[C@]12CCC3c4ccccc4CCC3C1[C@H](CCC(=O)Nc1cccnn1)C/C2=N\O` (stereo partly drawn) [Compound 82], the inhibition at 0.1 µM in experiment [1] was 17%. For the same molecule, the inhibition at 1 µM in experiment [2] is 7%. Moreover, the “Rabbit placenta inhibition % @100 nM” value in experiment [3] is listed as 18%.
As for `CN1CCN(c2ccc(NC(=O)CC[C@@H]3C/C(=N\O)[C@@]4(C)CCC5c6ccccc6CCC5C34)nc2)CC1` (stereo partly drawn) [Compound 86, 3-((13S,15R,E)-17-(hydroxyimino)-13-methyl-7,8,9,11,12,13,14,15,16,17-decahydro-6H-cyclopenta[a]phenanthren-15-yl)-N-(5-(4-methylpiperazin-1-yl)pyridin-2-yl)propanamide], the inhibition at 0.1 µM in experiment [1] amounted to 61%. The inhibition at 1 µM in experiment [2] turned out to be 6%. In addition, the “Rabbit placenta inhibition % @100 nM” value in experiment [3] is reported as 51%.
With `Cc1ccnc(NC(=O)CC[C@@H]2C/C(=N\O)[C@@]3(C)CCC4c5ccccc5CCC4C23)c1` (stereo partly drawn) [Compound 88, 3-((13S,15R,E)-17-(hydroxyimino)-13-methyl-7,8,9,11,12,13,14,15,16,17-decahydro-6H-cyclopenta[a]phenanthren-15-yl)-N-(4-methylpyridin-2-yl)propanamide], the inhibition at 0.1 µM in experiment [1] stood at 65%. Besides, the inhibition at 1 µM in experiment [2] was -2%. The “Rabbit placenta inhibition % @100 nM” value in experiment [3] was found to be 10%.
With `CN(C)C(=O)c1ccc(NC(=O)CC[C@@H]2C/C(=N\O)[C@@]3(C)CCC4c5ccccc5CCC4C23)nc1` (stereo partly drawn) [Compound 92, 6-(3-((13S,15R,E)-17-(hydroxyimino)-13-methyl-7,8,9,11,12,13,14,15,16,17-decahydro-6H-cyclopenta[a]phenanthren-15-yl)propanamido)-N,N-dimethylnicotinamide], the inhibition at 0.1 µM in experiment [1] stood at 37%. Besides, the inhibition at 1 µM in experiment [2] worked out at 9%. Further, the “Rabbit placenta inhibition % @100 nM” value in experiment [3] was 15%.
Taken in the same sequence, the figures for `C[C@]12CCC3c4ccccc4CCC3C1[C@H](CCC(=O)Nc1cc3c([nH]c1=O)CCCC3)C/C2=N\O` (stereo partly drawn) [Compound 94, 3-((13S,15R,E)-17-(hydroxyimino)-13-methyl-7,8,9,11,12,13,14,15,16,17-decahydro-6H-cyclopenta[a]phenanthren-15-yl)-N-(2-oxo-1,2,5,6,7,8-hexahydroquinolin-3-yl)propanamide] were 63%, 0% and 8%.
Take `C[C@]12CCC3c4ccccc4CCC3C1[C@H](CCC(=O)Nc1ccc(C#N)cn1)C/C2=N\O` (stereo partly drawn) [Compound 100, N-(5-cyanopyridin-2-yl)-3-((13S,15R,E)-17-(hydroxyimino)-13-methyl-7,8,9,11,12,13,14,15,16,17-decahydro-6H-cyclopenta[a]phenanthren-15-yl)propanamide]: the inhibition at 0.1 µM in experiment [1] came to 51%. The inhibition at 1 µM in experiment [2] is -2%. Moreover, the “Rabbit placenta inhibition % @100 nM” value in experiment [3] turned out to be 12%.
The corresponding values for `C[C@]12CCC3c4ccccc4CCC3C1[C@H](CCC(=O)Nc1ncccc1O)C/C2=N\O` (stereo partly drawn) [Compound 102, 3-((13S,15R,E)-17-(hydroxyimino)-13-methyl-7,8,9,11,12,13,14,15,16,17-decahydro-6H-cyclopenta[a]phenanthren-15-yl)-N-(3-hydroxypyridin-2-yl)propanamide] are 57%, 20% and 1%.
As to `C[C@]12CCC3c4ccccc4CCC3C1[C@H](CCC(=O)Nc1ccccn1)C/C2=N\O` (stereo partly drawn) [Compound 104, 3-((13S,15R,E)-17-(hydroxyimino)-13-methyl-7,8,9,11,12,13,14,15,16,17-decahydro-6H-cyclopenta[a]phenanthren-15-yl)-N-(pyridin-2-yl)propanamide], in experiment [1], the inhibition at 0.1 µM was 64%. For the same molecule, the inhibition at 1 µM in experiment [2] is -13%. In experiment [3], the “Rabbit placenta inhibition % @100 nM” value is listed as 9%.
Taken in the same sequence, the figures for `CN1CCN(c2ccc(NC(=O)CC[C@@H]3C/C(=N\O)[C@@]4(C)CCC5c6cccc(F)c6CCC5C34)nc2)CC1` (stereo partly drawn) [Compound 116, 3-((13S,15R,E)-4-fluoro-17-(hydroxyimino)-13-methyl-7,8,9,11,12,13,14,15,16,17-decahydro-6H-cyclopenta[a]phenanthren-15-yl)-N-(5-(4-methylpiperazin-1-yl)pyridin-2-yl)propanamide] were 85%, 26% and 76%.
